The text below walks through data of US10870647B2, “Imidazopyridine derivative, method for preparing same, and pharmaceutical composition containing same as active ingredient for preventing or treating cancer” (DAEGU-GYEONGBUK MEDICAL INNOVATION FOUNDATION, priority 2016, dated 2020).

Where two headings read alike, the source gives them in different places.

What all share (test): Kinase selectivity, scanMAX Kinase assay panel (DiscoverX), % control at 1 uM
Holding throughout (format): binding

In assay [1] the target is T1, scanMAX Kinase assay panel (Homo sapiens, UniProt P00519, F317I).
T1 construct: purchased DiscoverX
T1 sequence (P00519 whole entry F317I): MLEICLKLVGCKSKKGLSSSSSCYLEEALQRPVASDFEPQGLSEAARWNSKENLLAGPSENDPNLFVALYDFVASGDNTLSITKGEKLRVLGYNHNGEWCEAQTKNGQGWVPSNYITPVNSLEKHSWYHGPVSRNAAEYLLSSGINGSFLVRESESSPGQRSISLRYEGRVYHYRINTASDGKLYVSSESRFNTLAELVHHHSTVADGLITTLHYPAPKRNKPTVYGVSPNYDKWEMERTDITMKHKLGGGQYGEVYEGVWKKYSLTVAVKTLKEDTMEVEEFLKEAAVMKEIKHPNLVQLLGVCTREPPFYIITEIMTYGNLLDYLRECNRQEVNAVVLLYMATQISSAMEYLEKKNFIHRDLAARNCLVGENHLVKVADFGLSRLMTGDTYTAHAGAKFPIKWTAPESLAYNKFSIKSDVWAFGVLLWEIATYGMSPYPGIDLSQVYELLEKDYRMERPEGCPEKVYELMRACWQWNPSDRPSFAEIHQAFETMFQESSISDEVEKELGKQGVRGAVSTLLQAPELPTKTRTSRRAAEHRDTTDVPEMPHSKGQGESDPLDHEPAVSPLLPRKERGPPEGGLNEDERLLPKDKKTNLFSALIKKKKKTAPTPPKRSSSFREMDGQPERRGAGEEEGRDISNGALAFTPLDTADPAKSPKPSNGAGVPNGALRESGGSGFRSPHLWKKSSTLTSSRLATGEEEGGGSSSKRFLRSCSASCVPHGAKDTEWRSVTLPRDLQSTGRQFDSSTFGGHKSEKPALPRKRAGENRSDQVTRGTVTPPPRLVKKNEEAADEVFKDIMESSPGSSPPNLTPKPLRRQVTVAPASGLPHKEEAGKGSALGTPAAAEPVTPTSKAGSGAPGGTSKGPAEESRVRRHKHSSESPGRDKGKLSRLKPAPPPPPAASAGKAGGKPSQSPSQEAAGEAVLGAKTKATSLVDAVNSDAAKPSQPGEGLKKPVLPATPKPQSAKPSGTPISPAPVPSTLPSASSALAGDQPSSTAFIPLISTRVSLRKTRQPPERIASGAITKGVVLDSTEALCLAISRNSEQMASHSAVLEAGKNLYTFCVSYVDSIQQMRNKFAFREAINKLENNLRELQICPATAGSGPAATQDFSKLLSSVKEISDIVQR
Conditions: 1 uM, read-out: Percent Control (%). In short, it runs like this: (§1)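 Each kinase was first exposed to the test compound at 1 uM in DMSO. Signal was then normalised to positive and negative controls to give % control. Finally, any enzyme showing <35% control was judged inhibited.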

The target in assay [2] is T2, scanMAX Kinase assay panel (Homo sapiens, UniProt P42336).
T2 construct: purchased DiscoverX
T2 sequence (P42336 whole entry): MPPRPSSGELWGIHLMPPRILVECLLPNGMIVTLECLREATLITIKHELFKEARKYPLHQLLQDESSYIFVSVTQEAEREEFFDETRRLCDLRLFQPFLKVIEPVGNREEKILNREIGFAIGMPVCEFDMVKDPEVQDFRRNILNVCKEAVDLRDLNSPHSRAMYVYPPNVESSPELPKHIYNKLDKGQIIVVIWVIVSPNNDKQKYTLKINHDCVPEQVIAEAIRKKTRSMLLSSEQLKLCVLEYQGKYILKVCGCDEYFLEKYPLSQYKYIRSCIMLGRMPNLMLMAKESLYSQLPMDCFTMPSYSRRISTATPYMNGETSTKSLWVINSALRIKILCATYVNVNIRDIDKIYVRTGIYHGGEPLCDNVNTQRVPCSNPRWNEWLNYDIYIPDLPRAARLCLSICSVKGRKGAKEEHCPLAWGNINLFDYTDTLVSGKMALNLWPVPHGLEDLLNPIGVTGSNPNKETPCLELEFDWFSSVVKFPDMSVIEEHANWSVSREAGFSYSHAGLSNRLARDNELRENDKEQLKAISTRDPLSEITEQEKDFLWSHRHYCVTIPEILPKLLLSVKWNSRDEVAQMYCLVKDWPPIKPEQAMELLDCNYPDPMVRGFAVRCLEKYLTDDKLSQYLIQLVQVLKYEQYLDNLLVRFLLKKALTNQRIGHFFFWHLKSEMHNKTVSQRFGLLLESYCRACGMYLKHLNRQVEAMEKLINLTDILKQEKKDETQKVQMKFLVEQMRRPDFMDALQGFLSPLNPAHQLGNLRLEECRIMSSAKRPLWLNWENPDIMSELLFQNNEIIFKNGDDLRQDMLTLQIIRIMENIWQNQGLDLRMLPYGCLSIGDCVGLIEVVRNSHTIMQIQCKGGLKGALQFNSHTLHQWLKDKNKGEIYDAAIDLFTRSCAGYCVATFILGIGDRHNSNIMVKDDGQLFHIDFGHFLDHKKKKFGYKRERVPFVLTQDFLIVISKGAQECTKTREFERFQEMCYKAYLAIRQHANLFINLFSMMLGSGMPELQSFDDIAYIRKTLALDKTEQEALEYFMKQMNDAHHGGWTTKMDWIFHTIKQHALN
Conditions: PIK3CA; 1 uM; read-out: Percent Control (%). In short, it runs like this:
as §1

In assay [3] the target is T3, scanMAX Kinase assay panel (Homo sapiens, UniProt Q13555).
T3 construct: purchased DiscoverX
T3 sequence (Q13555 whole entry): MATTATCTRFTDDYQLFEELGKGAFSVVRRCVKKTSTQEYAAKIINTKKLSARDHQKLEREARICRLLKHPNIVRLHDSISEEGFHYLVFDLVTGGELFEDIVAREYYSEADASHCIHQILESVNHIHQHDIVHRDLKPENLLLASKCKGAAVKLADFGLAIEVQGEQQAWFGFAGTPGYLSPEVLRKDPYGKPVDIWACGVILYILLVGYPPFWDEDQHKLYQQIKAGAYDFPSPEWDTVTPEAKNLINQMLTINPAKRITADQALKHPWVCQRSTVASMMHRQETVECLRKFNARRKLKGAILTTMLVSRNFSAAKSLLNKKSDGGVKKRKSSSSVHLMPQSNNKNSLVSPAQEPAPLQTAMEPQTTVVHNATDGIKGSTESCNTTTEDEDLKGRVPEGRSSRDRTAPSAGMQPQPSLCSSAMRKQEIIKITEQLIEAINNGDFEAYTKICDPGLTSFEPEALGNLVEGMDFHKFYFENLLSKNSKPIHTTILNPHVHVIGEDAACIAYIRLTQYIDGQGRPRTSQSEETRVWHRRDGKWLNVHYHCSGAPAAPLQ
Conditions: CAMK2G; 1 uM; read-out: Percent Control (%). In short, it runs like this: as §1

For assay [4], the target named is T4, scanMAX Kinase assay panel (Homo sapiens, UniProt Q8NE63).
T4 construct: purchased DiscoverX
T4 sequence (Q8NE63 1-616): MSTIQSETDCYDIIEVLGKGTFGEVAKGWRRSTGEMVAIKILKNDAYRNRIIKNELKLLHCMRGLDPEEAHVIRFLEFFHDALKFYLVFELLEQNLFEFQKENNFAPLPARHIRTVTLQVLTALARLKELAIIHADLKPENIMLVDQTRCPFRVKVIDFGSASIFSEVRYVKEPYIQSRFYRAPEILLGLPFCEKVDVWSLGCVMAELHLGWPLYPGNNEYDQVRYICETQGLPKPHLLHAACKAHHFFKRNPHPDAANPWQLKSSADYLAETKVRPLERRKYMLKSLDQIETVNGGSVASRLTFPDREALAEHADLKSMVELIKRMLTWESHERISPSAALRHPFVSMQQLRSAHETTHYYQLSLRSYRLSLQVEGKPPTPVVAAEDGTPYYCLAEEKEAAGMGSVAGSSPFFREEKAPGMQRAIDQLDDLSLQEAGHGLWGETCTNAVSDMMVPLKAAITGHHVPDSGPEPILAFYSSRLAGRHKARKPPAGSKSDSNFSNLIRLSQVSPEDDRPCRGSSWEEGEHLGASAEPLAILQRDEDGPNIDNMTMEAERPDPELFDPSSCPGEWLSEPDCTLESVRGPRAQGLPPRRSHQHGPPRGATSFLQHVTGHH
The note with it: HIPK4; 1 uM; read-out: Percent Control (%). In short, it runs like this: as §1

Assay [5] addresses T5, scanMAX Kinase assay panel (Homo sapiens, UniProt Q8TD19).
T5 construct: purchased DiscoverX
T5 sequence (Q8TD19 1-979): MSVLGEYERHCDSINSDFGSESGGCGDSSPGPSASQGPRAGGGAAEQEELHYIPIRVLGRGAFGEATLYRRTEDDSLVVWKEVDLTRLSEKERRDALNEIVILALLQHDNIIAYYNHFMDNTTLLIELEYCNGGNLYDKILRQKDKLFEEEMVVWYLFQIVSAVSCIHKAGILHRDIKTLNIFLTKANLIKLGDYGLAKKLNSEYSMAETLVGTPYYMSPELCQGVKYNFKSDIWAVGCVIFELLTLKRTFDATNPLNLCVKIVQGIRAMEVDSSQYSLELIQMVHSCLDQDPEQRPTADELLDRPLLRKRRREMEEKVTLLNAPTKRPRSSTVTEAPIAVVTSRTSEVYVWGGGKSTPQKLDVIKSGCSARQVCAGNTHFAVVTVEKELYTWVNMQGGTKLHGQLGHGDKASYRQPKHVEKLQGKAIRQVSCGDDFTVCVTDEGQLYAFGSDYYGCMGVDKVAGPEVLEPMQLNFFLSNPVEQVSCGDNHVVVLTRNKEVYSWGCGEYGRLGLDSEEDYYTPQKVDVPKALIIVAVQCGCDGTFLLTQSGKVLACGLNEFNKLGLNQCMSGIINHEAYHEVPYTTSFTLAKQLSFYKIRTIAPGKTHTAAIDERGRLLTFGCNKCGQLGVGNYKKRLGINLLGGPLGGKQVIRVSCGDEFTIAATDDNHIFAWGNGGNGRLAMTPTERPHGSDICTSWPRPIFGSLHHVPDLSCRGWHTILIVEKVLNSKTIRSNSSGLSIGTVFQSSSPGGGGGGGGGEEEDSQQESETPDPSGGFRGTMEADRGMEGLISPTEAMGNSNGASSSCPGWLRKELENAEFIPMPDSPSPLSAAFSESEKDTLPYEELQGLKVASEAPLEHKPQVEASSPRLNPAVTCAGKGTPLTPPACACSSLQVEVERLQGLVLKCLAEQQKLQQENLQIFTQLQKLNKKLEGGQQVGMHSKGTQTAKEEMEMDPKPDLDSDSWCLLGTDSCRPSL
Conditions: NEK9; 1 uM; read-out: Percent Control (%). In short, it runs like this: as §1

Assay [6] deals with T6, scanMAX Kinase assay panel (Homo sapiens, UniProt Q8TDX7).
T6 construct: purchased DiscoverX
T6 sequence (Q8TDX7 whole entry): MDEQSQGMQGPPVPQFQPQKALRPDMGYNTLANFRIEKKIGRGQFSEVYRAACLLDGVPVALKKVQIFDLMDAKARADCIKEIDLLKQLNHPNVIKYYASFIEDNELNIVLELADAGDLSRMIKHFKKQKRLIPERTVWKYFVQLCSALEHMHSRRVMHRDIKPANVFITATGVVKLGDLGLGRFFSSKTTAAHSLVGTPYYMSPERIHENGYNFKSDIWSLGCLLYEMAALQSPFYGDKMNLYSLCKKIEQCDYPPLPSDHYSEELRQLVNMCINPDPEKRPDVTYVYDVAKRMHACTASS
The note with it: NEK7; 1 uM; read-out: Percent Control (%). In short, it runs like this:
as §1

The target of assay [7] is T7, scanMAX Kinase assay panel (Homo sapiens, UniProt Q99759).
T7 construct: purchased DiscoverX
T7 sequence (Q99759 1-626): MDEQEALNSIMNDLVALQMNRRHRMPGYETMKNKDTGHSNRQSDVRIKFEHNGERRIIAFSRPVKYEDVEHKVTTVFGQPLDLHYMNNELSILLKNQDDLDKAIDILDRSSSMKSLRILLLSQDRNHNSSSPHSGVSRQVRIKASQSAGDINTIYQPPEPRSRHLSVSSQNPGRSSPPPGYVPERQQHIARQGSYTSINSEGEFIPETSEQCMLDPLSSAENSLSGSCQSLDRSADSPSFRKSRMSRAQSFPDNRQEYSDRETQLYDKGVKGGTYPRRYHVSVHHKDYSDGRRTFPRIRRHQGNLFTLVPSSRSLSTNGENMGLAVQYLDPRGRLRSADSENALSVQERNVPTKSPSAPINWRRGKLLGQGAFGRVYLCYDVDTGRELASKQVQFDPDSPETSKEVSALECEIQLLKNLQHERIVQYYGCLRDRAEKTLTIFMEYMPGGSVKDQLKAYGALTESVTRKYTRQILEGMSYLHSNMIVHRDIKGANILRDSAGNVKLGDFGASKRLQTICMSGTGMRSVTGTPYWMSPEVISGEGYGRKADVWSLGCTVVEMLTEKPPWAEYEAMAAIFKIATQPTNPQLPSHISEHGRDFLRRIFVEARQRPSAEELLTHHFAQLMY
Conditions: MAP3K3; 1 uM; read-out: Percent Control (%). In short, it runs like this:
as §1

For the compound `Cc1ccc(C(=O)Nc2ccc(CN3CCN(C)CC3)c(C(F)(F)F)c2)cc1C#Cc1cnc2c(Nc3cnn(C)c3)cccn12` [Example 1, 4-methyl-3-((8-((1-methyl-1H-pyrazol-4-yl)amino)imidazo[1,2-a]pyridin-3-yl)ethynyl)-N-(4-((4-methylpiperazin-1-yl)methyl)-3-(trifluoromethyl)phenyl)benzamide], the remaining binding at 1 µM worked out at 1% in assay [1] (ABL1 (F317I)-nonphosphorylated); 3% in assay [1] (ABL1 (F317I)-phosphorylated); 99% in assay [2]; 73% in assay [3]; 2% in assay [4]; 6% in assay [5]. The remaining binding at 1 µM in assay [6] turned out to be 71%; in assay [7], 0%.
For `Cc1cn(-c2cc(NC(=O)c3ccc(C)c(C#Cc4cnc5c(Nc6cnn(C)c6)cccn45)c3)cc(C(F)(F)F)c2)cn1` [Example 12, 4-methyl-N-(3-(4-methyl-1H-imidazol-1-yl)-5-(trifluoromethyl)phenyl)-3-((8-((1-methyl-1H-pyrazol-4-yl)amino)imidazo[1,2-a]pyridin-3-yl)ethynyl)benzamide], the remaining binding at 1 µM is 10% in assay [1] (ABL1 (F317I)-nonphosphorylated); 28% in assay [1] (ABL1 (F317I)-phosphorylated); 100% in assay [2]; 80% in assay [3]; 66% in assay [4]; 86% in assay [5]. Moreover, the remaining binding at 1 µM is 82% in assay [6] and 33% in assay [7].
As for `Cc1ccc(NC(=O)C2(C(=O)Nc3ccc(F)cc3)CC2)cc1C#Cc1cnc2c(Nc3cnn(C(C)C)c3)cccn12` [Example 78], the remaining binding at 1 µM in assay [1] (ABL1 (F317I)-nonphosphorylated) is 36%; in assay [1] (ABL1 (F317I)-phosphorylated), 72%; in assay [2], 100%; in assay [3], 100%; in assay [4], 84%; in assay [5], 100%. Also, the figures for the remaining binding at 1 µM in assay [6] and in assay [7] were 100% and 77%, respectively.
